Experimental data from PubChem BioAssay AID1963984 (Molecular Pharmacology Branch, DTP, NCI, 2024).

Test system: 233499-124-R-J3-PDC spheroids with HUVEC/MSC, viability
Assay: Anticancer human tumor 233499-124-R-J3-PDC patient-derived colon adenocarcinoma cell line growth inhibition [PI3K]
Conditions: for IC50: curve of first compound; for viability, T/C: stronger effect = lower value
In short: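 Viability of mixed-cell spheroids was determined after exposure to pairwise combinations, one partner being inavolisib, alpelisib, duvelisib or copanlisib. Highest tested concentration matched clinical Cmax where known and 10 microM where not, descending in half-log steps.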
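Further: spheroids exposed to agents for seven days before readout.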
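Wherever viability, T/C is given: percent viability relative to DMSO vehicle control taken as 100%.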

## Cn1cnc2c(F)c(Nc3ccc(Br)cc3Cl)c(C(=O)NOCCO)cc21 + COc1c(OCCCN2CCOCC2)ccc2c3n(c(=NC(=O)c4cnc(N)nc4)nc12)CCN3
Second compound 0.00316 µM
  IC50: 0.378 µM
Second compound 0.01 µM
  IC50: 0.76 µM
Second compound 0.0316 µM
  IC50: 0.131 µM
Second compound 0.1 µM
  IC50: 0.054 µM
Second compound 0.316 µM
  IC50: < 0.00949 µM
Second compound 1 µM
  IC50: < 0.00949 µM
Second compound 0.00316 µM, first compound 0.00949 µM
  viability, T/C: 55.7%
Second compound 0.00316 µM, first compound 0.03 µM
  viability, T/C: 73.5%
Second compound 0.00316 µM, first compound 0.0949 µM
  viability, T/C: 76.5%
Second compound 0.00316 µM, first compound 0.3 µM
  viability, T/C: 54.9%
Second compound 0.00316 µM, first compound 0.949 µM
  viability, T/C: 31.2%
Second compound 0.00316 µM, first compound 3 µM
  viability, T/C: 29.5%
Second compound 0.01 µM, first compound 0.00949 µM
  viability, T/C: 75.2%
Second compound 0.01 µM, first compound 0.03 µM
  viability, T/C: 80.8%
Second compound 0.01 µM, first compound 0.0949 µM
  viability, T/C: 75.5%
Second compound 0.01 µM, first compound 0.3 µM
  viability, T/C: 56%
Second compound 0.01 µM, first compound 0.949 µM
  viability, T/C: 50.3%
Second compound 0.01 µM, first compound 3 µM
  viability, T/C: 24.6%
Second compound 0.0316 µM, first compound 0.00949 µM
  viability, T/C: 68.3%
Second compound 0.0316 µM, first compound 0.03 µM
  viability, T/C: 78.9%
Second compound 0.0316 µM, first compound 0.0949 µM
  viability, T/C: 54.1%
Second compound 0.0316 µM, first compound 0.3 µM
  viability, T/C: 34.2%
Second compound 0.0316 µM, first compound 0.949 µM
  viability, T/C: 30.4%
Second compound 0.0316 µM, first compound 3 µM
  viability, T/C: 20.1%
Second compound 0.1 µM, first compound 0.00949 µM
  viability, T/C: 71.5%
Second compound 0.1 µM, first compound 0.03 µM
  viability, T/C: 67.5%
Second compound 0.1 µM, first compound 0.0949 µM
  viability, T/C: 33.1%
Second compound 0.1 µM, first compound 0.3 µM
  viability, T/C: 28.2%
Second compound 0.1 µM, first compound 0.949 µM
  viability, T/C: 19.1%
Second compound 0.1 µM, first compound 3 µM
  viability, T/C: 17.9%
Second compound 0.316 µM, first compound 0.00949 µM
  viability, T/C: 41.3%
Second compound 0.316 µM, first compound 0.03 µM
  viability, T/C: 34.2%
Second compound 0.316 µM, first compound 0.0949 µM
  viability, T/C: 13.1%
Second compound 0.316 µM, first compound 0.3 µM
  viability, T/C: 10.2%
Second compound 0.316 µM, first compound 0.949 µM
  viability, T/C: 5.14%
Second compound 0.316 µM, first compound 3 µM
  viability, T/C: 6.9%
Second compound 1 µM, first compound 0.00949 µM
  viability, T/C: 2.93%
Second compound 1 µM, first compound 0.03 µM
  viability, T/C: 7.86%
Second compound 1 µM, first compound 0.0949 µM
  viability, T/C: 4.9%
Second compound 1 µM, first compound 0.3 µM
  viability, T/C: 0.96%
Second compound 1 µM, first compound 0.949 µM
  viability, T/C: 1.18%
Second compound 1 µM, first compound 3 µM
  viability, T/C: 1.01%

## Cn1ncc(Cl)c1-c1cc(C(=O)NC(CN)Cc2cccc(F)c2)sc1Cl (centres undefined) + CC(Nc1ncnc2nc[nH]c12)c1cc2cccc(Cl)c2c(=O)n1-c1ccccc1
Second compound 0.0316 µM
  IC50: 3.2 µM
Second compound 0.1 µM
  IC50: 4.73 µM
Second compound 0.316 µM
  IC50: 3.13 µM
Second compound 1 µM
  IC50: 4.11 µM
Second compound 3.16 µM
  IC50: 5.24 µM
Second compound 10 µM
  IC50: 5.3 µM
Second compound 0.0316 µM, first compound 0.0316 µM
  viability, T/C: 70.5%
Second compound 0.0316 µM, first compound 0.1 µM
  viability, T/C: 105%
Second compound 0.0316 µM, first compound 0.316 µM
  viability, T/C: 60.3%
Second compound 0.0316 µM, first compound 1 µM
  viability, T/C: 91.5%
Second compound 0.0316 µM, first compound 3.16 µM
  viability, T/C: 50.2%
Second compound 0.0316 µM, first compound 10 µM
  viability, T/C: 26.3%
Second compound 0.1 µM, first compound 0.0316 µM
  viability, T/C: 86.4%
Second compound 0.1 µM, first compound 0.1 µM
  viability, T/C: 108%
Second compound 0.1 µM, first compound 0.316 µM
  viability, T/C: 94.2%
Second compound 0.1 µM, first compound 1 µM
  viability, T/C: 58.2%
Second compound 0.1 µM, first compound 3.16 µM
  viability, T/C: 75.7%
Second compound 0.1 µM, first compound 10 µM
  viability, T/C: 24.7%
Second compound 0.316 µM, first compound 0.0316 µM
  viability, T/C: 115%
Second compound 0.316 µM, first compound 0.1 µM
  viability, T/C: 107%
Second compound 0.316 µM, first compound 0.316 µM
  viability, T/C: 70.6%
Second compound 0.316 µM, first compound 1 µM
  viability, T/C: 62.7%
Second compound 0.316 µM, first compound 3.16 µM
  viability, T/C: 63.6%
Second compound 0.316 µM, first compound 10 µM
  viability, T/C: 28.7%
Second compound 1 µM, first compound 0.0316 µM
  viability, T/C: 94.8%
Second compound 1 µM, first compound 0.1 µM
  viability, T/C: 90.9%
Second compound 1 µM, first compound 0.316 µM
  viability, T/C: 86.1%
Second compound 1 µM, first compound 1 µM
  viability, T/C: 73.5%
Second compound 1 µM, first compound 3.16 µM
  viability, T/C: 59.6%
Second compound 1 µM, first compound 10 µM
  viability, T/C: 24.6%
Second compound 3.16 µM, first compound 0.0316 µM
  viability, T/C: 97%
Second compound 3.16 µM, first compound 0.1 µM
  viability, T/C: 98.6%
Second compound 3.16 µM, first compound 0.316 µM
  viability, T/C: 79.1%
Second compound 3.16 µM, first compound 1 µM
  viability, T/C: 106%
Second compound 3.16 µM, first compound 3.16 µM
  viability, T/C: 64.5%
Second compound 3.16 µM, first compound 10 µM
  viability, T/C: 31.5%
Second compound 10 µM, first compound 0.0316 µM
  viability, T/C: 94.8%
Second compound 10 µM, first compound 0.1 µM
  viability, T/C: 92%
Second compound 10 µM, first compound 0.316 µM
  viability, T/C: 108%
Second compound 10 µM, first compound 1 µM
  viability, T/C: 65.2%
Second compound 10 µM, first compound 3.16 µM
  viability, T/C: 69.6%
Second compound 10 µM, first compound 10 µM
  viability, T/C: 32.4%
